Experiments:
human recombinant-PDE5 = human recombinant-PDE5 (Homo sapiens, UniProt O76074); experiment: Inhibitory effect on cGMP-PDE (PDE5 IC50, one-step assay); assay type: biochemical; details: in vitro, 0.15 μM 8-[H3]-cGMP, 30 min incubation
Description: The compounds of structural formula (I) were tested for an ability to inhibit PDE5. The ability of a compound to inhibit PDE5 activity is related to the IC50 value for the compound, i.e., the concentration of inhibitor required for 50% inhibition of enzyme activity. The IC50 value for compounds of structural formula (I) were determined using recombinant human PDE5.
cGMP-PDE activity of compounds of the present invention was measured using a one-step assay adapted from Wells et al., Biochim. Biophys. Acta, 384, 430 (1975). The reaction medium contained 50 mM Tris-HCl, pH 7.5, 5 mM magnesium acetate, 250 μg/ml 5′-Nucleotidase, 1 mM EGTA, and 0.15 μM 8-[H^3]-cGMP. Unless otherwise indicated, the enzyme used was a human recombinant-PDE5 (ICOS Corp., Bothell, Wash.).
Compounds of the invention were dissolved in DMSO finally present at 2% in the assay.

| IC50 (human recombinant-PDE5) [nM] | melting point [°C] | Compound |
| --- | --- | --- |
| 48.1 | 322 to 328 | CN1CC(=O)N2[C@H](c3ccc4c(c3)OCO4)c3[nH]c4ccc(O)cc4c3C[C@@H]2C1=O (racemic) [Example 1, (+/−, cis)-6-Benzo[1,3]dioxol-5-yl-10-hydroxy-2-methyl-2,3,6,7,12,12a-hexahydropyrazino[1′,2′:1,6)pyrido[3,4-b]indole-1,4-dione] |
| 402 | 259 to 261 | COc1ccc2[nH]c3c(c2c1)C[C@@H]1C(=O)N(C)CC(=O)N1[C@@H]3c1ccc2c(c1)OCO2 (racemic) [Example 2, (trans)-6-(1,3-Benzodioxol-5-yl)-10-methoxy-2-methyl-2,3,6,7,12,12a-hexahydropyrazino[1′,2′:1,6]pyrido[3,4-b]indole-1,4-dione] |
| 6 | 198 to 208 | CN1CC(=O)N2[C@H](c3ccc4c(c3)OCO4)c3[nH]c4cc(-c5ccccc5)ccc4c3C[C@@H]2C1=O (racemic) [Example 4, (+−, cis)-6-Benzo[1,3]dioxol-5-yl-2-methyl-9-phenyl-2,3,6,7,12,12a-hexahydropyrazino[1′,2′:1,6]pyrido[3,4-b]indole-1,4-dione] |
| 288 | 294 to 295 | COC(=O)c1ccc2c3c([nH]c2c1)[C@@H](c1ccc2c(c1)OCO2)N1C(=O)CN(C)C(=O)[C@H]1C3 (racemic) [Example 5, (+−, cis)-6-Benzo[1,3]dioxol-5-yl-2-methyl-1,4-dioxo-1,2,3,6,7,12,12a-octahydropyrazino[1′,2′:1,6]pyrido[3,4-b]indole-9-carboxylic acid methyl ester] |
| 151 | 246 to 252 | CN1CC(=O)N2[C@H](c3ccc4c(c3)OCO4)c3[nH]c4cc(C(=O)O)ccc4c3C[C@H]2C1=O (racemic) [Example 6, (+−,trans)-6-Benzo[1,3]dioxol-5-yl-2-methyl-1,4-dioxo-1,2,3,4,6,7,12,12a-octahydropyrazino[1′,2′:1,6]pyrido[3,4-b]indole-9-carobxylic acid] |
| 7 | 329 to 331 | CN1CC(=O)N2[C@H](c3ccc4c(c3)OCO4)c3[nH]c4cc(C#N)ccc4c3C[C@@H]2C1=O (racemic) [Example 7, (+−, cis)-6-Benzo[1,3]dioxol-5-yl-2-methyl-1,4-dioxo-1,2,3,4,6,7,12,12a-octahydropyrazino[1′,2′:1,6]pyrido[3,4-b]indole-9-carbonitrile] |
| 37 | 150 to 161 | CN1CC(=O)N2[C@H](c3ccc4c(c3)OCO4)c3[nH]c4c(OCc5ccccc5)cccc4c3C[C@@H]2C1=O (racemic) [Example 8, (+−, cis)-6-Benzo[1,3]dioxol-5-yl-8-benzyloxy-2-methyl-2,3,6,7,12,12a-hexahydropyrazino[1′2′:1,6]pyrido[3,4-b]indole-1,4-dione] |
| 1.2 | 288 to 293 | COc1ccc2c3c([nH]c2c1)[C@@H](c1ccc2c(c1)OCO2)N1C(=O)CN(C)C(=O)[C@H]1C3 [Example 3, (6R,12aR)-6-Benzo[1,3]dioxol-5-yl-9-methoxy-2-methyl-2,3,6,7,12,12a-hexahydropyrazino-[1′,2′:1,6]pyrido[3,4-b]indole-1,4-dione] |

— patent publication US6872721B2, “Derivatives of 2,3,6,7,12,12a-hexahydropyrazino-[1′,2′:1,6]pyrido[3,4b]-indole-1,4-dione” (Lilly ICOS LLC, priority 2000, dated 2005)
